Source: patent publication US9403806B1, “Cognition enhancing compounds and compositions, methods of making, and methods of treating” (NeuroSolis, Inc., priority 2010, dated 2016)

Legend:
CD-I mice = test: Apomorphine induced climbing model of psychosis; assay type: in vivo; conditions: mice, sc, apomorphine 2 mg/kg (FIG. 1)
Protocol: As described in Costall et. al. European Journal of Pharmacology 1978, 50, 39. individual CD-I mice, 1-2 months old, were placed in a cylindrical wire mesh cage (13.2 cm high×13.2 cm diameter) constructed of steel wire 1 mm thick spaced at 1.2 cm^2. Cylinders were placed in a standard OptiMICE mouse cage (29×32×9×29 cm and 14 cm high) with adequate wood chip bedding provided. Observations of climbing (defined as 3 or more paws of the ground) were carried out every 5 minutes at a duration of 1 minute for […]. Animals were injected subcutaneously under isoflurane anesthesia with test compounds, reference compounds, which included clozapine, haloperidol, olanzapine and xanomeline, or PBS as a control. This was followed 5 minutes later by 2 mg/kg apomorphine hydrochloride. All drugs were dissolved in PBS or a mixture of (by volume) 96% PBS and 4% hydroxypropyl-beta-cyclodextrin, and dosed at a rate of 5 ml per kilogram of body weight. Following injections, animals were replaced in the mesh cages and observed for climbing (defined as 3 or more paws off the ground) every 5 minutes for 1 minute for 60 minutes after dosing.

[1] = system: hippocampal inositol phosphate; test: In vivo tissue inositol phosphate signaling pathway activation, hippocampus; set-up: species or system Long Evans Hooded rats; conditions: rats, 30 mg/kg sc (FIG. 10B)
Protocol: Experimental compounds or drug substances were administered using standard techniques to Long Evans Hooded rats weighing 225 to 350 grams, and which had been pretreated with a subcutaneous injection of lithium chloride at a suitable dose between 3 and 10 mmoles per kg. At suitable times the animals were briefly anesthetized using 5% isoflurane and euthanized by decapitation. The brains and submaxillary salivary glands were rapidly dissected out, and the hippocampuses were dissected from the brains. The dissected tissues were homogenized in a suitable volume of ice-cold phosphate-buffered saline containing 10 mM lithium chloride, pH7.4, using a tissue homogenizer, and used immediately or frozen in aliquots at −80 deg C. for future use. The concentration of inositol-1-phosphate was determined in the homogenates using the IPOne TR-FRET assay (CisBio cat no 621PAPEB), following the manufacturer's instruction

rat M1 receptors = biological target: T1, rat M1 receptors (Rattus norvegicus, UniProt P08482); test: PI turnover (inositol phosphate production) in M1-CHO cells; assay type: cell-based; conditions: mean Smax relative to carbachol (100.0); CHO cells expressing rat M1
T1 construct: host or cells: CHO (M1-CHO)
T1 sequence (P08482 1-460): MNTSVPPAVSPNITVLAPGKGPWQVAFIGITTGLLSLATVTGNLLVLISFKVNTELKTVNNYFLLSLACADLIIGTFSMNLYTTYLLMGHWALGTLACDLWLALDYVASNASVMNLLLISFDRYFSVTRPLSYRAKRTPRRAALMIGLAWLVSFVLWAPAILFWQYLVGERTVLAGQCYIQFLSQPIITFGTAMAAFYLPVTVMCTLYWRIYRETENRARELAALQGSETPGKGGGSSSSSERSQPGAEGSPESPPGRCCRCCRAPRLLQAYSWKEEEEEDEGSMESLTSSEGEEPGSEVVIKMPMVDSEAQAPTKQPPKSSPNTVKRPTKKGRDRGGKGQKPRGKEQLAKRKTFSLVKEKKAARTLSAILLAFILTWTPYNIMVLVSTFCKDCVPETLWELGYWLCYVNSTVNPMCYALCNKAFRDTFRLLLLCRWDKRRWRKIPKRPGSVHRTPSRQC
Protocol: The medium was changed to 70 μL/well of inositol-free DMEM containing 2 mM glutamine, 10% FBS and 10 μCi/ml of [3H]-inositol (PE:cat # NET114A250UC), incubated overnight as above, then 100 μL of a solution of the test compound in HBSS containing 10 mM LiCl and 20 mM HEPES, pH 7.4 was added, incubation was continued for 60 min under the above conditions, and the test was stopped by removing the test compound and replacing with 100 μL of 50 mM formic acid in water at 4° C. […] The compounds in Table 1 are all dihydropyrimidine-oxadiazoles which vary only at the oxadiazole side chain.

[2] = Metabolites in serum and urine of dosed rats (LC-MS); assay type: in vivo; conditions: rat serum or urine, 10 mg/kg po
Protocol: Oxadiazoles disclosed herein as well as other oxadiazoles were investigated to determine the formation of metabolites. Animals were dosed, blood taken, serum prepared, serum proteins precipitated and ultrafiltrates prepared as described in Example 6. In separate experiments, urine was collected from rats for 16-24 hours after dosing, using standard metabolic cages. The urine container and collected urine were maintained at 4° C. Urine was lyophilized, taken back into water. The uftrafiltrate was prepared by adding formic acid to a final concentration of 1% to the urine samples, then filtered through a 0.2 um nylon membrane. The ultrafiltrate was subjected to LC-MS analysis. Instead of measuring the product ions in Q3, manual Q1 scans of the liquid chromatograph were undertaken, seeking parent ions of potential metabolites of the compounds. The criteria for identifying metabolites were as follows: (1) the ion should be present in the sera or urines of dosed rats, but not in sera or urines from non-dosed rats (2) the ion should be identifiable as a metabolic derivative of the dosed compound (e.g. loss of a functional chemical moiety, addition of a hydroxyl group or a glucuronic acid moiety, etc). Metabolites were determined not to be present if no compound meeting the above criteria could be detected in serum or urine.

M1/CHO PI turnover Relative Mean Smax (rat M1 receptors): 70.0 | Presence of metabolites (10 mg/kg po) [2]: Yes
SMILES: CCc1noc(C2CN=CNC2)n1 (stereo not shown) [MCD-386, 3-ethyl-5-(1,4,5,6-tetrahydropyrimidin-5-yl)-1,2,4-oxadiazole]
activity in the apomorphine induced climbing model (CD-I mice): inactive | increase in the concentration of IP in the hippocampus [1]: 71%
